# Test results reported in patent publication US20240398831A1, “COMPOSITIONS COMPRISING SMALL MOLECULE REGULATORS OF TUMOR IMMUNITY AND METHODS OF USING SAME” (Duke University, priority 2021, published 2024).
# Assay: Uterine wet weights in ovariectomized mice
# Type: in vivo, mouse
# Details: E2 pellets 0.01 mg/60 days vs placebo
# Description: ERα+ MCF7 cells served as a positive control. Cells were treated as either mock transfected or transfected with scrambled control or three different siRNA targeting Esr1. […] Esr1 was first normalized to Rplp0 and then Esr1 knockdown samples were normalized to a non-targeting control. RNA was collected from both cell lines after 48 hr of siRNA transfection. […] Mouse ovary served as a positive control. […] ERα+MCF7 cells served as a positive control (FIG. 5E, left). […] Data are expressed as individual data points and represented as mean±S.E.M. Significance was calculated by Student's t test or two-way ANOVA (FIGS. 5E-5F), followed by Bonferroni's multiple correction (**p<0.0001).
# Ovarlectomy and subcutaneous pellet Insertion. Ovariectomy was performed as previously described (Nelson et al., Science 2013, 342, 1094-1098). Eight days prior to tumor inoculation, 7 weeks old C57BL/6J or 5 weeks old (iBP) female mice were subjected to ovariectomy or sham surgery. Mice were anesthetized in an inhalation chamber (2% Isoflurane) and maintained in half the dose of isoflurane (1%) via nose cone throughout the surgical process. Prior to surgery, mice were administered a 5 mg/kg dose of carprofen subcutaneously. […] The mouse was then removed from anesthesia and kept in a clean cage and monitored until conscious. The mice were monitored for recovery for 10 days.
substance,measurement,value
17β-estradiol [E2],uterine wet weights,increase
